Assay results reported in the supplement of paper PMC11061612.

Key:
Assay in all cases: combination Emax (second highest fraction inhibited in the dose matrix, 72 h); higher = more inhibition; extreme values may be limits of the assay
[1] = test system: K-562 (Chronic Myelogenous Leukemia)
Procedure, shortened: (§1)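 After 24 hours at 37°C and 5% CO2 in 1536-well plates, cells in DMEM/F12 or RPMI plus 10% FBS received two-drug dose matrices for 72 hours. Viability came from CellTiter-Glo 2.0 luminescence and was scaled as inhibition, anchored at 0 by vehicle wells and at 1 by blank wells. Combination Emax is taken as the second-highest inhibition in the matrix, and Bliss excess as the observed combination effect less EA + EB − EA·EB, with EA and EB the single-agent effects.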

[2] = test system: SU-DHL-8 (B-Cell Non-Hodgkin's Lymphoma)
Procedure, shortened: as §1

[3] = test system: SR (Other Blood Carcinomas)
Procedure, shortened: as §1

[4] = test system: GR-ST (B-Lymphoblastic Leukemia)
Procedure, shortened: as §1

NCI-H2818 (Mesothelioma) = test system: NCI-H2818 (Mesothelioma)
Procedure, shortened: as §1

[5] = test system: DND-41 (T-Lymphoblastic Leukemia)
Procedure, shortened: as §1

[6] = test system: NCI-H847 (Small Cell Lung Carcinoma)
Procedure, shortened: as §1

TC-71 (Ewing's Sarcoma) = test system: TC-71 (Ewing's Sarcoma)
Procedure, shortened: as §1

[7] = test system: KARPAS-45 (T-Lymphoblastic Leukemia)
Procedure, shortened: as §1

ES1 (Ewing's Sarcoma) = test system: ES1 (Ewing's Sarcoma)
Procedure, shortened: as §1

[8] = test system: MS751 (Cervical Carcinoma)
Procedure, shortened: as §1

WM-115 (Melanoma) = test system: WM-115 (Melanoma)
Procedure, shortened: as §1

[9] = test system: NCI-H1792 (Lung Adenocarcinoma)
Procedure, shortened: as §1

CHP-212 (Neuroblastoma) = test system: CHP-212 (Neuroblastoma)
Procedure, shortened: as §1

[10] = test system: MFM-223 (Breast Carcinoma)
Procedure, shortened: as §1

[11] = test system: PANC-08-13 (Pancreatic Carcinoma)
Procedure, shortened: as §1

[12] = test system: HDQ-P1 (Breast Carcinoma)
Procedure, shortened: as §1

[13] = test system: MKN28 (Gastric Carcinoma)
Procedure, shortened: as §1

[14] = test system: L-540 (Hodgkin's Lymphoma)
Procedure, shortened: as §1

[15] = test system: KCL-22 (Chronic Myelogenous Leukemia)
Procedure, shortened: as §1

Compound | combination Emax [1] | combination Emax [2] | combination Emax [3] | combination Emax [4] | combination Emax (NCI-H2818 (Mesothelioma)) | combination Emax [5] | combination Emax [6] | combination Emax (TC-71 (Ewing's Sarcoma)) | combination Emax [7] | combination Emax (ES1 (Ewing's Sarcoma)) | combination Emax [8] | combination Emax (WM-115 (Melanoma)) | combination Emax [9] | combination Emax (CHP-212 (Neuroblastoma)) | combination Emax [10] | combination Emax [11] | combination Emax [12] | combination Emax [13] | combination Emax [14] | combination Emax [15]
COc1cccc(OCCCN)c1-c1cc(Nc2cnc(C#N)cn2)n[nH]1 [Prexasertib] + C[C@@H]1COCCN1C2=NC(=NC(=C2)C3(CC3)[S@](=N)(=O)C)C4=C5C=CNC5=NC=C4 [AZD6738] (first compound max 1 µM, 7x7, partner max 10 µM) | 0.985 | 0.964 | 1 | 0.829 | 0.387 | 0.891 | 1 | 0.962 | 0.979 | 1 | 0.383 | 0.59 | 0.832 | 0.788 | 0.814 | 0.49 | 0.597 | 0.597 | 0.963 | 0.999
COc1cccc(OCCCN)c1-c1cc(Nc2cnc(C#N)cn2)n[nH]1 [Prexasertib] + Cc1cc2ncnn2cc1Nc1ncc2c(n1)n(C1CCOCC1)c(=O)n2C [AZD7648] (first compound max 1 µM, 7x7, partner max 10 µM) | 0.948 | 0.968 | 1 | 0.806 | 0.344 | 0.844 | 1 | 0.945 | 0.981 | 1 | 0.453 | 0.59 | 0.87 | 0.814 | 0.763 | 0.587 | 0.612 | 0.575 | 0.962 | 1
COc1cccc(OCCCN)c1-c1cc(Nc2cnc(C#N)cn2)n[nH]1 [Prexasertib] + O=C(c1cc(Cc2n[nH]c(=O)c3ccccc23)ccc1F)N1CCN(C(=O)C2CC2)CC1 [Olaparib] (first compound max 1 µM, 7x7, partner max 10 µM) | 0.891 | 0.943 | 0.996 | 0.808 | 0.285 | 0.85 | 1 | 0.987 | 0.979 | 1 | 0.465 | 0.556 | 0.84 | 0.756 | 0.703 | 0.536 | 0.702 | 0.46 | 0.975 | 0.953
COc1cc2c(cc1OCCCCCOc1cc3c(cc1OC)C(=O)N1C=C(C)C[C@H]1C=N3)N=C[C@@H]1CC(C)=CN1C2=O [SG3199] + O=C(c1cc(Cc2n[nH]c(=O)c3ccccc23)ccc1F)N1CCN(C(=O)C2CC2)CC1 [Olaparib] (first compound max 0.001 µM, 7x7, partner max 10 µM) | 0.134 | 0.55 | 0.445 | 0.359 | 0.161 | 0.216 | 0.509 | 0.518 | 0.0966 | 0.689 | 0.176 | 0.206 | 0.144 | 0.384 | 0.128 | 0.101 | 0.153 | 0.0709 | 0.32 | 0.176
CCc1c2c(nc3ccc(O)cc13)-c1cc3c(c(=O)n1C2)COC(=O)[C@]3(O)CC [SN-38] + CN(C)CCCOc1ccc(-c2ccc3ncc4c(c3c2)n(C2CCOCC2)c(=O)n4C)cn1 [AZD0156] (first compound max 0.3 µM, 7x7, partner max 1 µM) | 0.752 | 0.992 | 0.994 | 0.749 | 0.499 | 0.934 | 0.976 | 1 | 0.305 | 1 | 0.883 | 0.43 | 0.757 | 0.747 | 0.243 | 0.131 | 0.702 | 0.451 | 0.951 | 0.921
CC(=O)Nc1cccc(-n2c(=O)n(C3CC3)c(=O)c3c(Nc4ccc(I)cc4F)n(C)c(=O)c(C)c32)c1 [Trametinib] + Cc1nc(-c2cn3c(n2)-c2ccc(-c4cnn(C(C)(C)C(N)=O)c4)cc2OCC3)n(C(C)C)n1 [Taselisib] (first compound max 1 µM, 7x7, partner max 10 µM) | 0.495 | 0 | 0.719 | 0.633 | 0.428 | 0.369 | 0.782 | 0.714 | 0.755 | 0.651 | 0.438 | 0.951 | 1 | 1 | 0.865 | 0.655 | 0.915 | 0.708 | 0.36 | 0.801
CC1(C)CCC(CN2CCN(c3ccc(C(=O)NS(=O)(=O)c4ccc(NCC5CCOCC5)c([N+](=O)[O-])c4)c(Oc4cnc5[nH]ccc5c4)c3)CC2)=C(c2ccc(Cl)cc2)C1 [Venetoclax] + C1CN(CCC1(C(=O)N[C@@H](CCO)C2=CC=C(C=C2)Cl)N)C3=NC=NC4=C3C=CN4 [Capivasertib] (first compound max 1 µM, 7x7, partner max 3 µM) | 0.369 | 0.254 | 0.835 | 0.696 | 0.175 | 0.921 | 0.829 | 0.257 | 0.81 | 0.547 | 0.138 | 0.397 | 0.223 | 0.152 | 0.639 | 0.189 | 0.205 | 0.255 | 0.638 | 0.183
